# From patent US20090069300A1, “ISOQUINOLINYL AND ISOINDOLINYL DERIVATIVES AS HISTAMINE-3 ANTAGONISTS” (Wyeth, priority 2007, published 2009)
# Where a name gives a salt, the structure may show the parent alone.
row,SMILES,melting point [°C]
1,"O=C(c1ccc(-c2ccc3c(c2)CCN(CCN2CCCC2)C3=O)cc1)N1CCOCC1 (as salt: hydrochloride) [Example 122, 6-[4-(morpholin-4-ylcarbonyl)phenyl]-2-(2-pyrrolidin-1-ylethyl)-3,4-dihydroisoquinolin-1(2H)-one]",272 to 274
2,"O=C(NCCCl)c1ccc(-c2ccc3c(c2)CCN(CCN2CCCC2)C3=O)cc1 (as salt: hydrochloride) [Example 123, N-(2-chloroethyl)-4-[1-oxo-2-(2-pyrrolidin-1-ylethyl)-1,2,3,4-tetrahydroisoquinolin-6-yl]benzamide]",236 to 237
3,"CCN(C)C(=O)c1ccc(-c2ccc3c(c2)CCN(CCN2CCCC2)C3=O)cc1 (as salt: hydrochloride) [Example 124, N-ethyl-N-methyl-4-[1-oxo-2-(2-pyrrolidin-1-ylethyl)-1,2,3,4-tetrahydroisoquinolin-6-yl]benzamide]",200 to 201
4,"O=C(NCc1ccco1)c1ccc(-c2ccc3c(c2)CCN(CCN2CCCC2)C3=O)cc1 (as salt: hydrochloride) [Example 125, N-(2-furylmethyl)-4-[1-oxo-2-(2-pyrrolidin-1-ylethyl)-1,2,3,4-tetrahydroisoquinolin-6-yl]benzamide]",211 to 213
5,"COC[C@H](C)NC(=O)c1ccc(-c2ccc3c(c2)CCN(CCN2CCCC2)C3=O)cc1 (as salt: hydrochloride) [Example 126, N-[(1S)-2-methoxy-1-methylethyl]-4-[1-oxo-2-(2-pyrrolidin-1-ylethyl)-1,2,3,4-tetrahydroisoquinolin-6-yl]benzamide]",232 to 233
6,"COC[C@@H]1CCCN1C(=O)c1ccc(-c2ccc3c(c2)CCN(CCN2CCCC2)C3=O)cc1 (as salt: hydrochloride) [Example 128, 6-(4-{[(2S)-2-(methoxymethyl)pyrrolidin-1-yl]carbonyl}phenyl)-2-(2-pyrrolidin-1-ylethyl)-3,4-dihydroisoquinolin-1(2H)-one]",193 to 195
7,"O=C(Nc1nccs1)c1ccc(-c2ccc3c(c2)CCN(CCN2CCCC2)C3=O)cc1 (as salt: hydrochloride) [Example 130, 4-[1-oxo-2-(2-pyrrolidin-1-ylethyl)-1,2,3,4-tetrahydroisoquinolin-6-yl]-N-1,3-thiazol-2-ylbenzamide]",284 to 285
8,"CN(C)C(=O)c1ccc(-c2ccc3c(c2)CCN(CCN2CCCC2)C3=O)c(F)c1 (as salt: hydrochloride) [Example 137, 3-fluoro-N,N-dimethyl-4-[1-oxo-2-(2-pyrrolidin-1-ylethyl)-1,2,3,4-tetrahydroisoquinolin-6-yl]benzamide]",228 to 229
9,"O=C(c1ccc(-c2ccc3c(c2)CCN(CCN2CCCC2)C3=O)c(F)c1)N1CCCC1 (as salt: hydrochloride) [Example 138, 6-[2-fluoro-4-(pyrrolidin-1-ylcarbonyl)phenyl]-2-(2-pyrrolidin-1-ylethyl)-3,4-dihydroisoquinolin-1(2H)-one]",225 to 226
10,"CNC(=O)c1ccc(-c2ccc3c(c2)CCN(CCN2CCCC2)C3=O)c(F)c1 (as salt: hydrochloride) [Example 139, 3-fluoro-N-methyl-4-[1-oxo-2-(2-pyrrolidin-1-ylethyl)-1,2,3,4-tetrahydroisoquinolin-6-yl]benzaimde]",188 to 190
11,"CCNC(=O)c1ccc(-c2ccc3c(c2)CCN(CCN2CCCC2)C3=O)c(F)c1 (as salt: hydrochloride) [Example 140, N-ethyl-3-fluoro-4-[1-oxo-2-(2-pyrrolidin-1-ylethyl)-1,2,3,4-tetrahydroisoquinolin-6-yl]benzamide]",209 to 210
12,"CNC(=O)c1ccc(-c2ccc3c(c2)CCN(CCCN2CCCC2)C3=O)cc1 (as salt: hydrochloride) [Example 141, N-methyl-4-[1-oxo-2-(3-pyrrolidin-1-ylpropyl)-1,2,3,4-tetrahydroisoquinolin-6-yl]benzamide]",158 to 159
13,"C[C@@H]1CCCN1CCN1CCc2cc(C(=O)N3CCCCCC3)ccc2C1=O (as salt: hydrochloride) [Example 144, 6-(azepan-1-ylcarbonyl)-2-{2-[(2R)-2-methylpyrrolidin-1-yl]ethyl}-3,4-dihydroisoquinolin-1(2H)-one]",192 to 193
14,"C[C@@H]1CCCN1CCN1CCc2cc(C(=O)NC3CCC3)ccc2C1=O (as salt: hydrochloride) [Example 145, N-cyclobutyl-2-{2-[(2R)-2-methylpyrrolidin-1-yl]ethyl}-1-oxo-1,2,3,4-tetrahydroisoquinoline-6-carboxamide]",214 to 215
15,"C[C@@H]1CCCN1CCN1CCc2cc(C(=O)NC3CCCCC3)ccc2C1=O (as salt: hydrochloride) [Example 147, N-cyclohexyl-2-{2-[(2R)-2-methylpyrrolidin-1-yl]ethyl}-1-oxo-1,2,3,4-tetrahydroisoquinoline-6-carboxamide]",140 to 141
16,"C[C@@H]1CCCN1CCN1CCc2cc(C(=O)NC3Cc4ccccc4C3)ccc2C1=O (as salt: hydrochloride) [Example 148, N-(2,3-dihydro-1H-inden-2-yl)-2-{2-[(2R)-2-methylpyrrolidin-1-yl]ethyl}-1-oxo-1,2,3,4-tetrahydroisoquinoline-6-carboxamide]",145 to 146

row,SMILES,melting point [°C]
1,"C[C@@H]1CCCN1CCN1CCc2cc(C(=O)NC3CCCC3)ccc2C1=O (as salt: hydrochloride) [Example 149, N-cyclopentyl-2-{2-[(2R)-2-methylpyrrolidin-1-yl]ethyl}-1-oxo-1,2,3,4-tetrahydroisoquinoline-6-carboxamide]",219 to 220
2,"C[C@@H]1CCCN1CCN1CCc2cc(C(=O)N3CCCC3)ccc2C1=O (as salt: hydrochloride) [Example 151, 2-{2-[(2R)-2-methylpyrrolidin-1-yl]ethyl}-6-(pyrrolidin-1-ylcarbonyl)-3,4-dihydroisoquinolin-1(2H)-one]",166 to 167
3,"C[C@@H]1CCCN1CCN1CCc2cc(C(=O)N3Cc4ccccc4C3)ccc2C1=O (as salt: hydrochloride) [Example 152, 6-(1,3-dihydro-2H-isoindol-2-ylcarbonyl)-2-{2-[(2R)-2-methylpyrrolidin-1-yl]ethyl}-3,4-dihydroisoquinolin-1(2H)-one]",109 to 110
4,"O=C(c1ccc2c(c1)CCN(CCN1CCCC1)C2=O)N1CCCCC1 (as salt: hydrochloride) [Example 155, 6-(piperidine-1-carbonyl)-2-(2-(pyrrolidin-1-yl)ethyl)-3,4-dihydroisoquinolin-1(2H)-one]",144 to 147
5,"O=C(c1ccc2c(c1)CCN(CCN1CCCC1)C2=O)N1Cc2ccccc2C1 (as salt: hydrochloride) [Example 156, 6-(isoindoline-2-carbonyl)-2-(2-(pyrrolidin-1-yl)ethyl)-3,4-dihydroisoquinolin-1(2H)-one]",220 to 221
6,"C[C@@H]1CCCN1CCN1CCc2cc(-c3ccc4c(c3)CCNC4=O)ccc2C1=O (as salt: hydrochloride) [Example 157, (R)-2-(2-(2-methylpyrrolidin-1-yl)ethyl)-3,3′,4,4′-tetrahydro-6,6′-biisoquinoline-1,1′(2H,2′H-dione hydrochloride]",272 to 273.5
7,"CN1CCc2cc(-c3ccc4c(c3)CCN(CCN3CCCC3)C4=O)ccc2C1=O (as salt: hydrochloride) [Example 158, 2-methyl-2′-(2-(pyrrolidin-1-yl)ethyl)-3,3′,4,4′-tetrahydro-6,6′-biisoquinoline-1,1′(2H,2′H)-dione hydrochloride]",225 to 226
8,"C[C@@H]1CCCN1CCN1CCc2cc(N3CCCCC3)ccc2C1=O (as salt: hydrochloride) [Example 161, 2-{2-[(2R)-2-methylpyrrolidin-1-yl]ethyl}-6-piperidin-1-yl-3,4-dihydroisoquinolin-1(2H)-one]",> 225
9,"O=C1c2ccc(N3CCCCC3)cc2CCN1CCN1CCCC1 (as salt: hydrochloride) [Example 162, 6-(piperidin-1-yl)-2-(2-(pyrrolidin-1-yl)ethyl)-3,4-dihydroisoquinolin-1(2H)-one]",245 to 246
10,"O=C1c2ccc(N3CCCCC3)cc2CCN1CCN1CCCCC1 (as salt: hydrochloride) [Example 163, 6-(piperidin-1-yl)-2-(2-(piperidin-1-yl)ethyl)-3,4-dihydroisoquinolin-1(2H)-one]",245 to 246
11,"O=C1c2ccc(N3CCCCC3)cc2CCN1CCN1CCCCCC1 (as salt: hydrochloride) [Example 164, 2-(2-(azepan-1-yl)ethyl)-6-(piperidin-1-yl)-3,4-dihydroisoquinolin-1(2H)-one]",229 to 231
12,"C[C@@H]1CCCN1CCN1CCc2cc(N3CCCC3)ccc2C1=O (as salt: hydrochloride) [Example 165, (R)-2-(2-(2-methylpyrrolidin-1-yl)ethyl)-6-(pyrrolidin-1-yl)-3,4-dihydroisoquinolin-1(2H)-one]",182 to 183
13,"C[C@@H]1CCCN1CCN1CCc2cc(N3CCCCCC3)ccc2C1=O (as salt: hydrochloride) [Example 166, (R)-6-(azepan-1-yl)-2-(2-(2-methylpyrrolidin-1-yl)ethyl)-3,4-dihydroisoquinolin-1(2H)-one]",182 to 184
14,"NC(=O)c1ccc(-c2ccc3c(c2)CCN(CCN2CCCC2)C3)cc1 (as salt: hydrochloride) [Example 180, 4-[2-(2-pyrrolidin-1-ylethyl)-1,2,3,4-tetrahydroisoquinolin-6-yl]benzamide]",262 to 264
15,"CNC(=O)c1ccc(-c2ccc3c(c2)CCN(CCN2CCCC2)C3)cc1 (as salt: hydrochloride) [Example 181, N-methyl-4-[2-(2-pyrrolidin-1-ylethyl)-1,2,3,4-tetrahydroisoquinolin-6-yl]benzamide]",280 to 281
16,"CCNC(=O)c1ccc(-c2ccc3c(c2)CCN(CCN2CCCC2)C3)cc1 (as salt: hydrochloride) [Example 182, N-ethyl-4-[2-(2-pyrrolidin-1-ylethyl)-1,2,3,4-tetrahydroisoquinolin-6-yl]benzamide]",266 to 268
